Results as given in ChEMBL document CHEMBL4808193, “[11]-Chaetoglobosins from Pseudeurotium bakeri Induce G2/M Cell Cycle Arrest and Apoptosis in Human Cancer Cells” (J Nat Prod, 2021).
pIC50: −log10 of the molar value.

What was measured:
MCF7 [1] = assay: Cell cycle arrest in human MCF7 cells assessed as accumulation at S phase at 5 uM measured after 24 hrs by PI staining based flow cytometry (reference value: 9.43%); format: functional
A-427 [2] = assay: Cell cycle arrest in human A-427 cells assessed as accumulation at G2/M phase at 4 uM measured after 24 hrs by PI staining based flow cytometry (reference value: 13.59%); format: functional
A-427 [3] = assay: Cell cycle arrest in human A-427 cells assessed as accumulation at G2/M phase at 2 uM measured after 24 hrs by PI staining based flow cytometry (reference value: 13.59%); format: functional
A-427 [4] = assay: Induction of apoptosis in human A-427 cells assessed as early apoptotic cells at 2.5 uM measured after 24 hrs by Annexin V-FITC/propidium iodide staining based flow cytometric analysis (reference value: 4.75%); format: functional
A-427 [5] = assay: Induction of apoptosis in human A-427 cells assessed as late apoptotic cells at 7.5 uM measured after 24 hrs by Annexin V-FITC/propidium iodide staining based flow cytometric analysis (reference value: 3.59%); format: functional
A-427 [6] = assay: Induction of apoptosis in human A-427 cells assessed as early apoptotic cells at 7.5 uM measured after 24 hrs by Annexin V-FITC/propidium iodide staining based flow cytometric analysis (reference value: 4.75%); format: functional
HCT-116 = assay: Cytotoxicity against human HCT-116 cells assessed as reduction in cell viability by MTT assay; format: functional, cell-based
MCF7 [7] = assay: Cell cycle arrest in human MCF7 cells assessed as accumulation at G2/M phase at 10 uM measured after 24 hrs by PI staining based flow cytometry (reference value: 18.9%); format: functional
MCF7 [8] = assay: Induction of apoptosis in human MCF7 cells assessed as late apoptotic cells at 7.5 uM measured after 24 hrs by Annexin V-FITC/propidium iodide staining based flow cytometric analysis (reference value: 1.19%); format: functional
MCF7 [9] = assay: Induction of apoptosis in human MCF7 cells assessed as early apoptotic cells at 5 uM measured after 24 hrs by Annexin V-FITC/propidium iodide staining based flow cytometric analysis (reference value: 3.07%); format: functional
A-427 [10] = assay: Cell cycle arrest in human A-427 cells assessed as accumulation at S phase at 6 uM measured after 24 hrs by PI staining based flow cytometry (reference value: 25.84%); format: functional
MCF7 [11] = assay: Cell cycle arrest in human MCF7 cells assessed as accumulation at G0/G1 phase at 5 uM measured after 24 hrs by PI staining based flow cytometry (reference value: 61.67%); format: functional
MCF7 [12] = assay: Cell cycle arrest in human MCF7 cells assessed as accumulation at G0/G1 phase at 7.5 uM measured after 24 hrs by PI staining based flow cytometry (reference value: 61.67%); format: functional
HeLa = assay: Cytotoxicity against human HeLa cells assessed as reduction in cell viability by MTT assay; format: functional, cell-based
MCF7 [13] = assay: Cell cycle arrest in human MCF7 cells assessed as accumulation at S phase at 7.5 uM measured after 24 hrs by PI staining based flow cytometry (reference value: 9.43%); format: functional
MCF7 [14] = assay: Cell cycle arrest in human MCF7 cells assessed as accumulation at G2/M phase at 5 uM measured after 24 hrs by PI staining based flow cytometry (reference value: 18.9%); format: functional
A-427 [15] = assay: Induction of apoptosis in human A-427 cells assessed as early apoptotic cells at 5 uM measured after 24 hrs by Annexin V-FITC/propidium iodide staining based flow cytometric analysis (reference value: 4.75%); format: functional
MCF7 [16] = assay: Induction of apoptosis in human MCF7 cells assessed as early apoptotic cells at 7.5 uM measured after 24 hrs by Annexin V-FITC/propidium iodide staining based flow cytometric analysis (reference value: 3.07%); format: functional
MCF7 [17] = assay: Cell cycle arrest in human MCF7 cells assessed as accumulation at G0/G1 phase at 10 uM measured after 24 hrs by PI staining based flow cytometry (reference value: 61.67%); format: functional
A-427 [18] = assay: Cell cycle arrest in human A-427 cells assessed as accumulation at S phase at 4 uM measured after 24 hrs by PI staining based flow cytometry (reference value: 25.84%); format: functional
A-427 [19] = assay: Cell cycle arrest in human A-427 cells assessed as accumulation at G2/M phase at 6 uM measured after 24 hrs by PI staining based flow cytometry (reference value: 13.59%); format: functional
MCF7 [20] = assay: Induction of apoptosis in human MCF7 cells assessed as late apoptotic cells at 10 uM measured after 24 hrs by Annexin V-FITC/propidium iodide staining based flow cytometric analysis (reference value: 1.19%); format: functional
A-427 [21] = assay: Cell cycle arrest in human A-427 cells assessed as accumulation at G0/G1 phase at 2 uM measured after 24 hrs by PI staining based flow cytometry (reference value: 60.57%); format: functional
MCF7 [22] = assay: Induction of apoptosis in human MCF7 cells assessed as late apoptotic cells at 5 uM measured after 24 hrs by Annexin V-FITC/propidium iodide staining based flow cytometric analysis (reference value: 1.19%); format: functional
HT-29 = assay: Cytotoxicity against human HT-29 cells assessed as reduction in cell viability by MTT assay; format: functional, cell-based
A-427 [23] = assay: Cell cycle arrest in human A-427 cells assessed as accumulation at G0/G1 phase at 4 uM measured after 24 hrs by PI staining based flow cytometry (reference value: 60.57%); format: functional
MCF7 [24] = assay: Cytotoxicity against human MCF7 cells assessed as reduction in cell viability by MTT assay; format: functional, cell-based
A-427 [25] = assay: Induction of apoptosis in human A-427 cells assessed as late apoptotic cells at 2.5 uM measured after 24 hrs by Annexin V-FITC/propidium iodide staining based flow cytometric analysis (reference value: 3.59%); format: functional
MCF7 [26] = assay: Cell cycle arrest in human MCF7 cells assessed as accumulation at G2/M phase at 7.5 uM measured after 24 hrs by PI staining based flow cytometry (reference value: 18.9%); format: functional
A-427 [27] = assay: Induction of apoptosis in human A-427 cells assessed as late apoptotic cells at 5 uM measured after 24 hrs by Annexin V-FITC/propidium iodide staining based flow cytometric analysis (reference value: 3.59%); format: functional
A-427 [28] = assay: Cell cycle arrest in human A-427 cells assessed as accumulation at G0/G1 phase at 6 uM measured after 24 hrs by PI staining based flow cytometry (reference value: 60.57%); format: functional
A-427 [29] = assay: Cell cycle arrest in human A-427 cells assessed as accumulation at S phase at 2 uM measured after 24 hrs by PI staining based flow cytometry (reference value: 25.84%); format: functional
MCF7 [30] = assay: Induction of apoptosis in human MCF7 cells assessed as early apoptotic cells at 10 uM measured after 24 hrs by Annexin V-FITC/propidium iodide staining based flow cytometric analysis (reference value: 3.07%); format: functional
HepG2 = assay: Cytotoxicity against human HepG2 cells assessed as reduction in cell viability by MTT assay; format: functional, cell-based
A-427 [31] = assay: Cytotoxicity against human A-427 cells assessed as reduction in cell viability by MTT assay; format: functional, cell-based
A549 = assay: Cytotoxicity against human A549 cells assessed as reduction in cell viability by MTT assay; format: functional, cell-based
MCF7 [32] = assay: Cell cycle arrest in human MCF7 cells assessed as accumulation at S phase at 10 uM measured after 24 hrs by PI staining based flow cytometry (reference value: 9.43%); format: functional
L02 = assay: Cytotoxicity against human L02 cells assessed as reduction in cell viability by MTT assay; format: cell-based

Work on `CC1=C[C@@H]2/C=C/C[C@H](C)CC(=O)/C=C\C(=O)[C@]23C(=O)N[C@@H](Cc2c[nH]c4ccccc24)[C@@H]3[C@@H]1C` yielded an Activity (MCF7 [1]) of 13.57%, an Activity (A-427 [2]) of 44.26% and an Activity (A-427 [3]) of 34.67%. For the same molecule, the Activity (A-427 [4]) was 12.11%, the Activity (A-427 [5]) was 32.81% and the Activity (A-427 [6]) was 27.61%. The pIC50 (HCT-116) was 4.97, the Activity (MCF7 [7]) was 60.73% and the Activity (MCF7 [8]) was 7.41%. It also gave an Activity (MCF7 [9]) of 18.98%, an Activity (A-427 [10]) of 22.56% and an Activity (MCF7 [11]) of 37.81%. The Activity (MCF7 [12]) was 35%, the pIC50 (HeLa) was 5.08 and the Activity (MCF7 [13]) was 13.87%. The Activity (MCF7 [14]) was 48.62%, the Activity (A-427 [15]) was 23.77% and the Activity (MCF7 [16]) was 25.77%. The Activity (MCF7 [17]) was 26.96%, the Activity (A-427 [18]) was 21.18% and the Activity (A-427 [19]) was 50.04%. For the same molecule, the Activity (MCF7 [20]) was 9.17%, the Activity (A-427 [21]) was 44.94% and the Activity (MCF7 [22]) was 7.3%. The pIC50 (HT-29) was 5.09, the Activity (A-427 [23]) was 34.56% and the pIC50 (MCF7 [24]) was 5.14. For the same molecule, the Activity (A-427 [25]) was 17.54%, the Activity (MCF7 [26]) was 51.12% and the Activity (A-427 [27]) was 23.7%. For the same molecule, the Activity (A-427 [28]) was 27.41%, the Activity (A-427 [29]) was 20.39% and the Activity (MCF7 [30]) was 28.62%. It also gave a pIC50 (HepG2) of 5.02, a pIC50 (A-427 [31]) of 5.18 and a pIC50 (A549) of 5.10. The Activity (MCF7 [32]) was 12.31% and the pIC50 (L02) was 4.45.
